Data on six molecules can be found in patent publication US20240158446A1, “CYCLIC COMPOUND HAVING SELECTIVE INHIBITORY ACTION ON KRAS OVER HRAS AND NRAS” (CHUGAI SEIYAKU KABUSHIKI KAISHA, priority 2021, published 2024).

In test [1] the test system is human lung cancer strain NCI-H441. Nature of the test: cells. The note with it: NCI-H441, 96 h, read-out: NCI-H441 IC50 (nM), NCI-H441 cell proliferation, 4 days, CellTiter-Glo. For orientation: ATP-based viability assays read luminescence as a measure of living cells.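 Also: cell proliferation inhibition after four days measured by CellTiter-Glo.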
Test [2] deals with GDP-bound HRAS wild-type protein (Homo sapiens, UniProt P01112). The experiment in a line: Binding to HRAS by surface plasmon resonance (SPR), Single Cycle Kinetics. The note with it: ratio of KD for GDP-bound HRAS wild-type protein to KD for KRAS, SPR. A general note: Surface plasmon resonance follows binding to a sensor surface in real time, without labels.
Sequence of GDP-bound HRAS wild-type protein (P01112 whole entry): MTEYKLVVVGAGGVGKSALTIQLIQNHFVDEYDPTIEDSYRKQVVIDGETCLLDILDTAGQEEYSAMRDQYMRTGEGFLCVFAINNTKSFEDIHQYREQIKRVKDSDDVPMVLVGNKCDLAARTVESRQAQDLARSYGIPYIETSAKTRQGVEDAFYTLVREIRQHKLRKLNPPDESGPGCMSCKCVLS
Test [3] has as its target GDP-bound NRAS wild-type protein (Homo sapiens, UniProt P01111). Nature of the test: Binding to NRAS by surface plasmon resonance (SPR), Single Cycle Kinetics. The following applies: ratio of KD for GDP-bound NRAS wild-type protein to KD for KRAS, SPR.

Sequence of GDP-bound NRAS wild-type protein (P01111 whole entry): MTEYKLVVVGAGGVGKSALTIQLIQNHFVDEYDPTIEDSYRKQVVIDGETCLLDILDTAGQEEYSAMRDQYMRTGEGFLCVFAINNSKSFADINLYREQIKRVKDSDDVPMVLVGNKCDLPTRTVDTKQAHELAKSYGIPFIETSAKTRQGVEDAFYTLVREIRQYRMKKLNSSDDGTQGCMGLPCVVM

In the case of `CCC[C@H]1C(=O)N[C@@H]([C@@H](C)CC)C(=O)N(C)CC(=O)N(C)[C@H]2C/C=C\CCN(C2=O)[C@@H](Cc2ccc(C)cc2)C(=O)N(C)CC(=O)N[C@@H](CCc2cc(F)c(C(F)(F)F)c(F)c2)C(=O)N2C[C@@H](C)C[C@H]2C(=O)NC2(CCC2)C(=O)N(C)[C@@H](C2CCCC2)C(=O)N(C)[C@H](C(=O)N(C)CC)CC(=O)N1C` [PP1860], in test [1], the IC50 was determined as 10.3 nM. For the same molecule, the “HRAS/KRAS (KD ratio)” value in test [2] was “A (a compound having 10 or more and less than 20 is denoted as A)”. Besides, in test [3], the “NRAS/KRAS (KD ratio)” value is “A (a compound having 10 or more and less than 20 is denoted as A)”.
In the case of `CCCOC[C@H]1C(=O)N[C@@H]([C@@H](C)CC)C(=O)N(C)CC(=O)N(C)[C@H]2C/C=C\CCN(C2=O)[C@@H](Cc2ccc(C(F)(F)F)cc2)C(=O)N(C)CC(=O)N[C@@H](CCc2ccc(C(F)(F)F)c(OC)c2)C(=O)N2C[C@@H](C)C[C@H]2C(=O)NC2(CCC2)C(=O)N(C)[C@@H](C2CCCC2)C(=O)N(C)[C@H](C(=O)N(C)CC)CC(=O)N1C` [PP2027], the IC50 in test [1] was determined as 14 nM. Moreover, the “HRAS/KRAS (KD ratio)” value in test [2] is “B (a compound having 3 or more and less than 10 is denoted as B)”. Also, in test [3], the “NRAS/KRAS (KD ratio)” value was “A (a compound having 10 or more and less than 20 is denoted as A)”.
With `CCC[C@H]1C(=O)N[C@@H]([C@@H](C)CC)C(=O)N(C)CC(=O)N(C)[C@H]2C/C=C\CCN(C2=O)[C@@H](Cc2ccc(C)cc2)C(=O)N(C)CC(=O)N[C@@H](CCc2ccc(C(F)(F)F)c(OC)c2)C(=O)N2C[C@@H](C)C[C@H]2C(=O)NC2(CC(C)(C)C2)C(=O)N(C)[C@@H](C2CCCC2)C(=O)N(C)[C@H](C(=O)N(C)C)CC(=O)N1C` [PP1888], in test [1], the IC50 was determined as 3.5 nM. Also, the “HRAS/KRAS (KD ratio)” value in test [2] is “B (a compound having 3 or more and less than 10 is denoted as B)”. In addition, the “NRAS/KRAS (KD ratio)” value in test [3] is “A (a compound having 10 or more and less than 20 is denoted as A)”.
Regarding `CCCOC[C@H]1C(=O)N[C@@H]([C@@H](C)CC)C(=O)N(C)CC(=O)N(C)[C@H]2C/C=C\CCN(C2=O)[C@@H](Cc2ccc(C(F)(F)F)cc2)C(=O)N(C)CC(=O)N[C@@H](CCc2ccc(C(F)(F)F)c(OC)c2)C(=O)N2C[C@@H](C)C[C@H]2C(=O)NC2(CC(C)(C)C2)C(=O)N(C)[C@@H](C2CCCC2)C(=O)N(C)[C@H](C(=O)N(C)C)CC(=O)N1C` [PP1997], the IC50 in test [1] came out at 14.2 nM. Further, in test [2], the “HRAS/KRAS (KD ratio)” value was “B (a compound having 3 or more and less than 10 is denoted as B)”. The “NRAS/KRAS (KD ratio)” value in test [3] is “A (a compound having 10 or more and less than 20 is denoted as A)”.
On to `CC[C@H](C)[C@@H]1NC(=O)[C@H](C2CC2)N(C)C(=O)C[C@@H](C(=O)N(C)C)N(C)C(=O)[C@H](C2CCCC2)N(C)C(=O)C2(CCC2)N(C)C(=O)[C@@H]2C[C@@H](C)CN2C(=O)[C@H](CCc2cc(F)c(C(F)(F)F)c(F)c2)NC(=O)CN(C)C(=O)[C@H](Cc2ccc(C)cc2)N2CC/C=C\C[C@@H](C2=O)N(C)C(=O)CN(C)C1=O` [PP1788], for which, in test [1], the IC50 was 6.2 nM. Also, the “HRAS/KRAS (KD ratio)” value in test [2] was “B (a compound having 3 or more and less than 10 is denoted as B)”. In test [3], the “NRAS/KRAS (KD ratio)” value was “B (a compound having 3 or more and less than 10 is denoted as B)”.
Consider `CC[C@H](C)[C@@H]1NC(=O)[C@H](CC2CC2)N(C)C(=O)C[C@@H](C(=O)N(C)C)N(C)C(=O)[C@H](C2CCCC2)N(C)C(=O)C2(CCC2)NC(=O)[C@@H]2C[C@H](C)CN2C(=O)[C@H](CCc2ccc(C(F)(F)F)c(OC)c2)NC(=O)CN(C)C(=O)[C@H](Cc2ccc(C)cc2)N2CC/C=C\C[C@@H](C2=O)N(C)C(=O)CN(C)C1=O` [PP1861], for which the IC50 in test [1] worked out at 25.7 nM. Moreover, the “HRAS/KRAS (KD ratio)” value in test [2] is “B (a compound having 3 or more and less than 10 is denoted as B)”. Further, in test [3], the “NRAS/KRAS (KD ratio)” value is “A (a compound having 10 or more and less than 20 is denoted as A)”.
